In patent US11827645B2, “Spiro-γ-Lactams, and preparation method and use thereof” (Chongqing University of Arts and Sciences, priority 2020, dated 2023):

System: human pancreatic cell lines PANC
Experiment: MTT assay of cancer cell viability, PANC cells
Type: cell-based
Excerpt: To evaluate potentials for developing a drug leading from the synthesized compounds, the MTT assay was used to measure cancer cell viability upon the drug treatment. Two cancer cell lines (PANC and U87) were selected, which are some of the representing solid tumor cell lines in the National Cancer Institute's 60 human tumor cell lines panel (see FIG. 1A).

IC50 (human pancreatic cell lines PANC): 0.092 µM
Structure (SMILES): Cc1cccc(C)c1N1C(=O)C2(C=CC(=O)N2c2ccc(CNC(=O)OC(C)(C)C)cc2)C2C(=O)c3ccccc3OC21 (centres unmarked) [Compound 6j, Tert-butyl (4-(1-(2,6-dimethylphenyl)-2,4,5′-trioxo-1,3a,4,9a-tetrahydro-2H-spiro[chromeno[2,3-b]pyrrole-3,2′-pyrrol]-1′(5′H)-yl)benzyl)carbamate]
anticancer activities (cancer cell viability, PANC): excellent anticancer activities
